# From ChEMBL document CHEMBL4152208, “Synthesis and structure-activity relationships of quinolinone and quinoline-based P2X7 receptor antagonists and their anti-sphere formation activities in glioblastoma cells” (Eur J Med Chem, 2018)
# Active and inactive are the calls of the source. The rule behind the calls is not given here.
# Columns and labels:
# [1] = target: T1, P2X purinoceptor 7 (Homo sapiens) (UniProt Q99572); experiment: Antagonist activity at human P2X7 receptor expressed in HEK293 cells assessed as inhibition of BzATP-induced EtBr uptake at 1 uM after 2 hrs by fluorescence assay relative to control; format: cell-based
# T1 sequence (whole entry): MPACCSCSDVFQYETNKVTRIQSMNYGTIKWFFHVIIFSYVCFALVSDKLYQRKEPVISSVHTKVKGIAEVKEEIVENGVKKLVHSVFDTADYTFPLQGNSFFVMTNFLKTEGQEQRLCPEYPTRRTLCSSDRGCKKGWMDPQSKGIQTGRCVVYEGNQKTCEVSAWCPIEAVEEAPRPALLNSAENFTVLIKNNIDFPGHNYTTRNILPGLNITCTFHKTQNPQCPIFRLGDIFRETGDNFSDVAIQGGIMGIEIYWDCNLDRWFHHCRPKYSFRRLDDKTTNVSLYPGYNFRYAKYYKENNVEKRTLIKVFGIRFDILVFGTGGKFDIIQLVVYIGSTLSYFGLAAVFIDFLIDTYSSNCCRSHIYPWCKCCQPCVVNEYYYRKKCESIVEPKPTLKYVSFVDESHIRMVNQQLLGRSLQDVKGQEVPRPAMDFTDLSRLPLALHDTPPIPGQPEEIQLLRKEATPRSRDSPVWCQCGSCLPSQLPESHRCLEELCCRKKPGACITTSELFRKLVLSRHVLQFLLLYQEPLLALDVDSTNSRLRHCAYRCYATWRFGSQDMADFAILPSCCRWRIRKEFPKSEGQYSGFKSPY
# [2] = target: T2, P2X purinoceptor 3 (Homo sapiens, UniProt P56373); experiment: Antagonist activity at human P2X3 receptor expressed in 1321N1 cells assessed as inhibition of ATP-induced calcium flux measured for 30 secs at 0.4 secs intervals by Flou-4-AM dye based fluorescence assay; format: cell-based
# T2 sequence (P56373 whole entry): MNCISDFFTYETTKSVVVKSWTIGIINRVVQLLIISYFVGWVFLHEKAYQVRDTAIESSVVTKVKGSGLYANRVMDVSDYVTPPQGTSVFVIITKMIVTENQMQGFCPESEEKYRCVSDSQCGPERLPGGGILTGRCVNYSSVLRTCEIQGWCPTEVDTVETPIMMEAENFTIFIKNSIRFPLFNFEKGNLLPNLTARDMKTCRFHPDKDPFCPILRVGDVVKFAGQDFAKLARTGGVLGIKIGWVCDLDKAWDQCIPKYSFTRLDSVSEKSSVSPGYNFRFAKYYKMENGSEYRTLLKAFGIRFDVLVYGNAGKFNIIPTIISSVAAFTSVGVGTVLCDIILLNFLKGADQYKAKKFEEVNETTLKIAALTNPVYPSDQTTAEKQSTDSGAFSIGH
# [3] = species: Homo sapiens; experiment: Antiproliferative activity against human TS15-88 cells at 50 uM after 72 hrs by MTS assay; format: functional, cell-based
# [4] = Inhibition of neurosphere formation in human TS15-88 cells assessed as decrease in sphere size at 50 uM after 5 days by microscopic analysis relative to control; format: functional; settings: 120 h
# [5] = species: Homo sapiens; experiment: Effect on SOX2 mRNA expression in human TS15-88 cells after 72 hrs by qRT-PCR analysis; format: functional, cell-based
# [6] = target: T3, P2X purinoceptor 4 (Homo sapiens) (UniProt Q99571); experiment: Antagonist activity at human P2X4 receptor expressed in 1321N1 cells assessed as inhibition of ATP-induced calcium flux at 1 uM measured for 30 secs at 0.4 secs intervals by Flou-4-AM dye based fluorescence assay relative to control; format: cell-based
# T3 sequence (whole entry): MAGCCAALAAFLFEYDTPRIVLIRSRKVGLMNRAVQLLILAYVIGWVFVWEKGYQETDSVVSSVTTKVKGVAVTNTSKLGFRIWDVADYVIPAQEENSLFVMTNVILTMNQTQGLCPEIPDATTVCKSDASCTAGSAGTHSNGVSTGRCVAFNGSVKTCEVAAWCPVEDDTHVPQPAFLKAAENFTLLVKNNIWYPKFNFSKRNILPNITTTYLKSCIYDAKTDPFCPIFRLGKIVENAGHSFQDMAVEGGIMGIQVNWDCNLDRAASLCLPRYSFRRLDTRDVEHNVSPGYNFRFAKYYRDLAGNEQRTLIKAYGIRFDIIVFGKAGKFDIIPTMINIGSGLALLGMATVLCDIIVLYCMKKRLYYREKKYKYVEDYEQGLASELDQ
# [7] = Metabolic stability in mouse liver microsomes assessed as parent compound remaining at 1 uM up to 30 mins in presence of NADPH by LC-MS/MS analysis; format: ADME, microsome; settings: read-out: Stability
# [8] = target: T1, P2X purinoceptor 7 (Homo sapiens); experiment: Antagonist activity at human P2X7 receptor expressed in HEK293 cells assessed as inhibition of BzATP-induced EtBr uptake at 10 uM after 2 hrs by fluorescence assay relative to control; format: cell-based
# [9] = Equilibrium solubility of the compound in DMSO after 16 hrs; format: physicochemical
# [10] = Antiproliferative activity against human TS15-88 cells after 24 to 72 hrs by MTS assay; format: functional, cell-based
structure (smiles),measurement,setting,value
O=C(CC12CC3CC(CC(C3)C1)C2)Nc1cccc2nc(Cl)ccc12,inhibition,[1],89%
same,IC50,[2],Not Active
same,Activity,[3],Active
same,inhibition at 50 µM,[4],> 50%
same,Activity,[5],inactive
same,inhibition,[6],4%
same,"remaining at 0.5 h, 1 µM",[7],0.1%
same,inhibition,[8],97%
same,solubility at 16 h,[9],15.6 µM
same,IC50,[10],40 µM
